The text below walks through data of article PMC8745332, “Synthesis, Molecular Docking and Biological Characterization of Pyrazine Linked 2-Aminobenzamides as New Class I Selective Histone Deacetylase (HDAC) Inhibitors with Anti-Leukemic Activity” (International Journal of Molecular Sciences, 2021).

One data set deals with T1, human HDAC1 (Homo sapiens, UniProt Q13547).
T1 construct: purchased ENZO Life Sciences AG (Lausen, CH)
The experiment in a line: In vitro HDAC1 inhibition assay, fluorogenic p53 peptide Ac-RHKK(Acetyl)-AMC. Format: biochemical. The conditions noted are these: for IC50: 10 nM HDAC1, 20 µM substrate, 90 min, 37 °C; for inhibition at 1 µM: read-out: HDAC1 % inhibition @ 1 µM. Here is the method:
(§1) Recombinant human HDAC1, HDAC2, and HDAC3/NCOR1 were purchased from ENZO Life Sciences AG (Lausen, CH). Recombinant human HDAC 4, HDAC5, HDAC7, HDAC9 and HDAC11 were produced by Barinka lab in Prague, as described before. Recombinant human HDAC8 was produced by Romier et al. (IGBMC, Univ. Strasbourg), as described in [55].
(§2) The in vitro testing on recombinant HDACs 1-3 were performed with a fluorogenic peptide derived from p53 (Ac-RHKK(Acetyl)-AMC). The measurements were performed in an assay buffer (50 mM Hepes, 150 mM NaCl, 5 mM MgCl2, 1 mM TCEP and 0.2 mg/mL BSA, pH 7.4 adjusted with NaOH) at 37 °C. Inhibitors at different concentrations were incubated with 10 nM HDAC1, 3 nM HDAC2 or 3 nM HDAC3 (final concentration) for at least 5 min. The reaction was started with the addition of the fluorogenic substrate (20 µM final concentration) and incubated for 30 min for HDAC2 and HDAC3 and 90 min for HDAC1. The reaction was stopped with a solution of 1 mg/mL trypsin and 20 µM SAHA in 1 mM HCl and incubated for 1 h at 37 °C. […] The received fluorescence intensities were normalized with uninhibited reaction as 100% and the reaction without enzyme as 0%. A nonlinear regression analysis was done to determine the IC50 value.

A further data set deals with T2, human HDAC2 (Homo sapiens, UniProt Q92769).
T2 construct: purchased ENZO Life Sciences AG (Lausen, CH)
The experiment in a line: In vitro HDAC2 inhibition assay, fluorogenic p53 peptide Ac-RHKK(Acetyl)-AMC. Format: biochemical. Particulars: for IC50: 3 nM HDAC2, 20 µM substrate, 30 min, 37 °C; for inhibition at 1 µM: read-out: HDAC2 % inhibition @ 1 µM. Here is the method: as §1, §2

In another data set the target is T3, human HDAC3/NCOR1 (Homo sapiens, UniProt O15379).
T3 construct: purchased ENZO Life Sciences AG (Lausen, CH)
The experiment in a line: In vitro HDAC3 inhibition assay, fluorogenic p53 peptide Ac-RHKK(Acetyl)-AMC. It is filed as biochemical. The conditions noted are these: for IC50: 3 nM HDAC3, 20 µM substrate, 30 min, 37 °C; for inhibition at 1 µM: read-out: HDAC3 % inhibition @ 1 µM. Here is the method:
as §1, §2

The target of a further data set is T4, human HDAC8 (Homo sapiens, UniProt Q9BY41).
T4 construct: made in house
T4 sequence (Q9BY41 1-377): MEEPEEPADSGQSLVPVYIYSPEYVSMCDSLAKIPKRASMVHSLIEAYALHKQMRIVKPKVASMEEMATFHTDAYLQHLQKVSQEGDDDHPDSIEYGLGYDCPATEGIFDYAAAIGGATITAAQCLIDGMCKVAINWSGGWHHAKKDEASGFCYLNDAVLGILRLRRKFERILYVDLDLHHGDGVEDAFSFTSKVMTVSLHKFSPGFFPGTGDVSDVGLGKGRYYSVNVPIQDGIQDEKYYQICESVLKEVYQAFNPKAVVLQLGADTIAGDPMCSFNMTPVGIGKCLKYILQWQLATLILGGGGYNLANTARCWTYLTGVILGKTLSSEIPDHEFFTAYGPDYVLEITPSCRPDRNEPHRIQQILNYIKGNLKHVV
The experiment in a line: HDAC8 homogenous fluorescence assay with ZMAL substrate. It is filed as biochemical. Particulars: read-out: HDAC8 (% Inhib.). Here is the method:
as §1
Fluorescence intensity was measured at an excitation wavelength of 390 nm and an emission wavelength of 460 nm in a microtiter plate reader (BMG Polarstar).

The next data set is described as follows: in vitro. The conditions noted are these: human, HEK293 cells.

T1 sequence (Q13547 whole entry): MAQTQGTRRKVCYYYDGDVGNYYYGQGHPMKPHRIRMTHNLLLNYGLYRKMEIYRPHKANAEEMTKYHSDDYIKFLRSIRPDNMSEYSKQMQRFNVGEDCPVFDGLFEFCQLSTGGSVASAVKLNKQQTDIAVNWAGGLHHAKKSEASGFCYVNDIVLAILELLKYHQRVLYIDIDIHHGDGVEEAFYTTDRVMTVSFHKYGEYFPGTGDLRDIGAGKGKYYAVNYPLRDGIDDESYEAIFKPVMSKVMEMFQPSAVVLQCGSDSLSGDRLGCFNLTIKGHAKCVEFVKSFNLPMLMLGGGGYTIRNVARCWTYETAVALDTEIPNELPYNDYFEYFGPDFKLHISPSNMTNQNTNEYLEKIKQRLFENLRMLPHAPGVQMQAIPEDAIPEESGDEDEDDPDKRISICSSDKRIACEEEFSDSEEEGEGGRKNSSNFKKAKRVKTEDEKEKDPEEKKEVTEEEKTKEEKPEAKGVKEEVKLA
T3 sequence (O15379 whole entry): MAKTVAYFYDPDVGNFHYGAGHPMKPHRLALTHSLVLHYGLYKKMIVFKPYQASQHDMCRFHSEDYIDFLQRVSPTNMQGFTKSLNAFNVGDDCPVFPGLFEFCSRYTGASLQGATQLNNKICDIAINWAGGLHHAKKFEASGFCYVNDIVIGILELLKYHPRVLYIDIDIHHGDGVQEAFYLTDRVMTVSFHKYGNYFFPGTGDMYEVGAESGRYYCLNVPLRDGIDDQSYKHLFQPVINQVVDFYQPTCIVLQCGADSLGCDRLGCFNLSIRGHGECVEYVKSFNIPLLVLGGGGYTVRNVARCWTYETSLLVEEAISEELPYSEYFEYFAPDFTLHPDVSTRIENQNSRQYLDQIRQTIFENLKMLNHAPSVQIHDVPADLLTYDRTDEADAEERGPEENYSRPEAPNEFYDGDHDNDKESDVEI
T3 sequence (O75376 395-489 partner limits assumed): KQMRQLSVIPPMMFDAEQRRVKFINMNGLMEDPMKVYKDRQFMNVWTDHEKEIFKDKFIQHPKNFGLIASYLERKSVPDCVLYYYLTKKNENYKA
T2 sequence (Q92769 whole entry): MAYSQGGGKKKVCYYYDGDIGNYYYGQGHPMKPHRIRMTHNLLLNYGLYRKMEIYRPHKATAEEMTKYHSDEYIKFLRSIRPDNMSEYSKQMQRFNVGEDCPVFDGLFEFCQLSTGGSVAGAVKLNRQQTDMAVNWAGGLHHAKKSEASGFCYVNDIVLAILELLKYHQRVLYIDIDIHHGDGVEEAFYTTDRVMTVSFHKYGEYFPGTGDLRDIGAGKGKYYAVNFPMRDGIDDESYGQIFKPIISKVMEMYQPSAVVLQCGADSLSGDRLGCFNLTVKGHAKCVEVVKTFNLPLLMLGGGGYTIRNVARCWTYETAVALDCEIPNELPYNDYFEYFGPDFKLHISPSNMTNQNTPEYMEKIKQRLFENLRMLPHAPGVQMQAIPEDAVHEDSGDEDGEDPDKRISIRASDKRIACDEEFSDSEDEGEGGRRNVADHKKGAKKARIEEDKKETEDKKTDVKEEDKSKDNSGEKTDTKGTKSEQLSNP

The IC50 is the concentration that inhibits the measured activity by half. By viability is commonly meant a read-out of living cells in per cent, often relative to untreated cells. Take `Cn1cc(CN2CCN(c3cnc(C(=O)Nc4ccccc4N)cn3)CC2)c2ccccc21` [19k, N-(2-aminophenyl)-5-(4-((1-methyl-1H-indol-3-yl)methyl)piperazin-1-yl)pyrazine-2-carboxamide]: the IC50 turned out to be 0.14 ± 0.02 µM against human HDAC1, 0.56 ± 0.04 µM against human HDAC2 and 0.59 ± 0.03 µM on human HDAC3/NCOR1. Moreover, the inhibition at 1 µM on human HDAC8 was 0%. The compound also had a viability at 48 h, 50 µM in the data set “in vitro” of 71.4%.

`Nc1ccccc1NC(=O)c1cnc(N2CCN(CCc3ccccc3)CC2)cn1` [19a, N-(2-Aminophenyl)-5-(4-phenethylpiperazin-1-yl)pyrazine-2-carboxamide]: the results for the IC50 against human HDAC1, at human HDAC2 and on human HDAC3/NCOR1 were 0.51 ± 0.05 µM, 0.8 ± 0.07 µM and 1.12 ± 0.07 µM, respectively. The inhibition at 1 µM at human HDAC8 was 0%. In the data set “in vitro”, this compound came in with a viability at 48 h, 50 µM of 73.1%.

`Nc1cc(F)c(F)cc1NC(=O)c1cnc(N2CCN(CCc3c[nH]c4ccccc34)CC2)cn1` [19h]: the figures for the IC50 on human HDAC1, at human HDAC2 and against human HDAC3/NCOR1 were 0.81 ± 0.07 µM, 0.74 ± 0.03 µM and 0.57 ± 0.02 µM, respectively. Further, the viability at 48 h, 50 µM in “in vitro” is 54.5%.

For `Cc1ccc(NC(=O)c2cnc(N3CCNCC3)cn2)c(N)c1` [27b, N-(2-amino-4-methylphenyl)-5-(piperazin-1-yl)pyrazine-2-carboxamide], the inhibition at 1 µM at human HDAC1, at human HDAC2 and on human HDAC3/NCOR1 was 0% throughout.

As for `Nc1ccc(-c2ccc(F)cc2)cc1NC(=O)c1cnc(N2CCN(CCc3c[nH]c4ccccc34)CC2)cn1` [21b, 5-(4-(2-(1H-indol-3-yl)ethyl)piperazin-1-yl)-N-(4-amino-4’-fluoro-[1,1’-biphenyl]-3-yl)pyrazine-2-carboxamide], the 50% inhibitory concentration (IC50) against human HDAC1 came to 0.7 ± 0.08 µM; against human HDAC2, 0.77 ± 0.06 µM. Moreover, the inhibition at 1 µM on human HDAC3/NCOR1 and on human HDAC8 was 0% each time. Also, the viability at 48 h, 50 µM in “in vitro” turned out to be 71%.

`Nc1cc(Cl)ccc1NC(=O)c1cnc(N2CCNCC2)cn1` [25a, N-(2-amino-4-chlorophenyl)-5-(piperazin-1-yl)pyrazine-2-carboxamide]: the inhibition at 1 µM on human HDAC1 and on human HDAC2 was 0% throughout. Besides, the IC50 against human HDAC3/NCOR1 was found to be 8.7 ± 0.4 µM.

As to `Nc1ccc(C(F)(F)F)cc1NC(=O)c1cnc(N2CCNCC2)cn1` [27a, N-(2-amino-5-(trifluoromethyl)phenyl)-5-(piperazin-1-yl)pyrazine-2-carboxamide], the inhibition at 1 µM at human HDAC1, at human HDAC2 and on human HDAC3/NCOR1 was 0% in each case.

For the compound `CN1CCN(c2cnc(C(=O)Nc3cc(-c4ccccc4F)ccc3N)cn2)CC1` [29d, N-(4-amino-2’-fluoro-[1,1’-biphenyl]-3-yl)-5-(4-methylpiperazin-1-yl)pyrazine-2-carboxamide], the values for the IC50 on human HDAC1, at human HDAC2 and against human HDAC3/NCOR1 were 0.18 ± 0.01 µM, 0.26 ± 0.07 µM and 12 ± 1 µM, respectively. This compound displayed a viability at 48 h, 50 µM in the data set “in vitro” of 54%.

As for `CN1CCN(c2cnc(C(=O)Nc3cc(-c4ccsc4)ccc3N)cn2)CC1` [29a, N-(2-amino-5-(thiophen-3-yl)phenyl)-5-(4-methylpiperazin-1-yl)pyrazine-2-carboxamide], the IC50 against human HDAC1 was 0.11 ± 0.01 µM; against human HDAC2, 0.18 ± 0.06 µM; on human HDAC3/NCOR1, 4.4 ± 0.1 µM. This compound also came in with a viability at 48 h, 50 µM in the data set “in vitro” of 65.8%.

Turning to `Cn1cc(CN2CCN(c3cnc(C(=O)Nc4cc(F)ccc4N)cn3)CC2)c2ccccc21` [23b, 4-(5-((2-Amino-5-fluorophenyl)carbamoyl)pyrazin-2-yl)-1-((1-methyl-1H-indol-3-yl)methyl)piperazin-1-ium chloride], the IC50 came out at 0.27 ± 0.03 µM against human HDAC1, 0.5 ± 0.03 µM at human HDAC2 and 0.5 ± 0.02 µM against human HDAC3/NCOR1. The inhibition at 1 µM at human HDAC8 came to 38%. The viability at 48 h, 50 µM in “in vitro” was 58.7%.

In the case of `Nc1cc(Cl)ccc1NC(=O)c1cnc(N2CCN(CCc3c[nH]c4ccccc34)CC2)cn1` [19i, 5-(4-(2-(1H-indol-3-yl)ethyl)piperazin-1-yl)-N-(2-amino-4-chlorophenyl)pyrazine-2-carboxamide], the IC50 on human HDAC1 turned out to be 3 ± 0.2 µM; at human HDAC2, 2.7 ± 0.2 µM; on human HDAC3/NCOR1 it was 1.9 ± 0.1 µM. The compound also showed a viability at 48 h, 50 µM in the data set “in vitro” of 47.5%.

Consider `COc1ccc(NC(=O)c2cnc(N3CCNCC3)cn2)c(N)c1` [27c, N-(2-amino-4-methoxyphenyl)-5-(piperazin-1-yl)pyrazine-2-carboxamide], for which the IC50 at human HDAC1 worked out at 20 ± 1 µM; against human HDAC2, 14 ± 2 µM; on human HDAC3/NCOR1 it was 14 ± 1 µM.

Turning to `Nc1ccccc1NC(=O)c1cnc(N2CCN(CCc3ccc(Cl)cc3)CC2)cn1` [19b, N-(2-Aminophenyl)-5-(4-(4-chlorophenethyl)piperazin-1-yl)pyrazine-2-carboxamide], the inhibition at 2 µM at human HDAC1 (read-out: HDAC1 % inhibition @ 2 µM) came to 25.8%; at human HDAC2 (read-out: HDAC2 % inhibition @ 2 µM), 30.3%; at human HDAC3/NCOR1 (read-out: HDAC3 % inhibition @ 2 µM), 65.2%. The inhibition at 1 µM at human HDAC8 was 3.4%. In the data set “in vitro”, the viability at 48 h, 50 µM turned out to be 78.6%.

For `CN1CCN(c2cnc(C(=O)Nc3ccccc3N)cn2)CC1` [19o, N-(2-aminophenyl)-5-(4-methylpiperazin-1-yl)pyrazine-2-carboxamide], the inhibition at 1 µM was 27% at human HDAC1, 15% on human HDAC2 and 30% on human HDAC3/NCOR1.

Turning to `Nc1cc(F)ccc1NC(=O)c1cnc(N2CCNCC2)cn1` [23a, N-(2-Amino-4-fluorophenyl)-5-(piperazin-1-yl)pyrazine-2-carboxamide], the IC50 turned out to be 3.3 ± 0.18 µM on human HDAC1, 2.2 ± 0.2 µM against human HDAC2 and 0.4 ± 0.01 µM against human HDAC3/NCOR1. The inhibition at 1 µM on human HDAC8 worked out at 0%. Moreover, the viability at 48 h, 50 µM in “in vitro” came out at 67%.

As to `Cn1cc(CCN2CCN(c3cnc(C(=O)Nc4cc(F)ccc4N)cn3)CC2)c2ccccc21` [23c, N-(2-Amino-5-fluorophenyl)-5-(4-(2-(1-methyl-1H-indol-3-yl)ethyl)piperazin-1-yl)pyrazine-2-carboxamide], the IC50 against human HDAC1 turned out to be 0.33 ± 0.02 µM; against human HDAC2 it was 1.37 ± 0.08 µM; at human HDAC3/NCOR1, 0.59 ± 0.04 µM. In addition, in the data set “in vitro”, the viability at 48 h, 50 µM came out at 55.7%.

As to `CN1CCN(c2ncc(C(=O)Nc3ccccc3N)cn2)CC1` [19n, N-(2-aminophenyl)-2-(4-methylpiperazin-1-yl)pyrimidine-5-carboxamide], the inhibition at 1 µM was 5% at human HDAC1, 7% at human HDAC2 and 13% on human HDAC3/NCOR1.

On to `Nc1ccc(-c2ccc(F)cc2)cc1NC(=O)c1cnc(N2CCNCC2)cn1` [29c, N-(4-amino-4’-fluoro-[1,1’-biphenyl]-3-yl)-5-(piperazin-1-yl)pyrazine-2-carbox-amide], for which the IC50 against human HDAC1 worked out at 0.16 ± 0.03 µM; against human HDAC2 it was 0.34 ± 0.01 µM; against human HDAC3/NCOR1 it was 6.7 ± 0.5 µM. The same compound showed a viability at 48 h, 50 µM in the data set “in vitro” of 2.2%.

Turning to `Cn1cc(CN2CCN(c3cnc(C(=O)Nc4cc(F)c(F)cc4N)cn3)CC2)c2ccccc21` [19l], the IC50 stood at 0.29 ± 0.03 µM at human HDAC1, 0.56 ± 0.02 µM on human HDAC2 and 0.81 ± 0.05 µM at human HDAC3/NCOR1. This compound came in with a viability at 48 h, 50 µM in “in vitro” of 20.1%.

For the compound `Cn1cc(CCN2CCN(c3cnc(C(=O)Nc4ccc(F)cc4N)cn3)CC2)c2ccccc21` [19m, N-(2-Amino-4-fluorophenyl)-5-(4-(2-(1-methyl-1H-indol-3-yl)ethyl)piperazin-1-yl)pyrazine-2-carboxamide], the IC50 was determined as 0.4 ± 0.06 µM against human HDAC1, 1.48 ± 0.19 µM at human HDAC2 and 0.4 ± 0.02 µM against human HDAC3/NCOR1. In addition, the viability at 48 h, 50 µM in the data set “in vitro” worked out at 52.5%.

In the case of `Nc1cc(F)c(F)cc1NC(=O)c1cnc(N2CCNCC2)cn1` [25b, N-(2-amino-4,5-difluorophenyl)-5-(piperazin-1-yl)pyrazine-2-carboxamide], the IC50 against human HDAC1 came out at 4.3 ± 0.3 µM; at human HDAC2, 4.2 ± 0.1 µM; at human HDAC3/NCOR1, 1.6 ± 0.1 µM. Moreover, in the data set “in vitro”, the viability at 48 h, 50 µM stood at 83.7%.
